PMC5301048, “Selection and early clinical evaluation of the brain‐penetrant 11β‐hydroxysteroid dehydrogenase type 1 (11β‐HSD1) inhibitor UE2343 (Xanamem™)” (British Journal of Pharmacology, 2017)
Read-outs that look alike come from different tables or passages of the source.

What was measured:
[1] = test system: 29 enzymes and 72 receptors, including the glucocorticoid and mineralocorticoid receptors; experiment: Off-target diversity screen (data not shown); conditions: in words
[2] = Single ascending dose study, pharmacokinetics; format: in vivo; conditions: human; for half-life / Cmax / Tmax / CL renal: both sexes; for half-life / Cmax / Tmax: plasma; for Tmax: median (range); for CL renal: urine and plasma
Protocol: A double‐blind, randomized, placebo‐controlled single ascending dose study was carried out at Simbec Research Ltd, Merthyr Tydfil, UK. Each cohort consisted of six healthy male subjects and two females of non‐child bearing potential. Two male ‘dose leader’ subjects (1 active : 1 placebo) were dosed first in each cohort. The remainder of the cohort (5 active : 1 placebo) were dosed 24 h later. Dose cohorts were 2, 5, 10, 18, 25 and 35 mg. Safety, pharmacokinetic and pharmacodynamic assessments were made at pre‐determined time‐points during each part of the study. Dose escalation was dependent upon satisfactory review of the blinded safety (up to Day 6) and pharmacokinetic (up to 24 h post‐dose) data from the preceding cohort.
(§1) Laboratory evaluation of clinical safety parameters was carried out using standard validated methods. Measurement of plasma pharmacodynamic markers [adrenocorticotropic hormone (ACTH), cortisol, 4‐androstenedione, testosterone and dehydroepiandrosterone sulphate (DHEA‐s)] was carried out using commercially available kits. Each method was fully validated prior to analysis. Urinary steroid metabolites were measured according to established methods (Boonen et al., 2013). UE2343 levels in plasma, urine and CSF was determined by LC–MS/MS using fully validated methods.
(§2) The data and statistical analysis comply with the recommendations on experimental design and analysis in pharmacology (Curtis et al., 2015). Levels of probability, P < 0.05 were deemed to constitute the threshold for statistical significance. Pharmacokinetic parameters, except Tmax (time of maximum observed drug concentration), are given as mean ± coefficient of variation (CV%). Tmax is given as median ± range. For each of the pharmacodynamic parameters [ACTH, cortisol, adrenal androgens, tetrahydrocortisols (THFs)/tetrahydrocortisone (THE) ratio], the maximum % change from baseline for each subject was subjected to ANOVA. For selected data, an additional covariate factor for the baseline was also included in the ANOVA/analysis of covariance (ANCOVA) model. Associated P‐values <0.05 for each comparison have been presented.

[3] = Microsomal stability, human liver microsomes; format: in vitro ADME; conditions: mean ± SD [n]
Protocol: Microsomal stability was determined using pooled human, rat or dog liver microsomes according to the method described in WO2011135276 (Webster et al., 2011a).

[4] = test system: HPA axis hormones and steroids; experiment: Multiple ascending dose study, HPA axis hormones and steroids; format: in vivo; conditions: human, not significant vs placebo
Protocol: A double‐blind, randomized, placebo‐controlled multiple ascending dose study was carried out at Linear Clinical Research Ltd, Nedlands, Australia. Each cohort consisted of eight healthy male subjects. Each subject received UE2343 or placebo twice daily (b.i.d ) (12 hourly) in the fed state for 9 days (Day 1 to Day 9) and once on the morning of Day 10 (19 doses in total). Dose cohorts were 10, 20 and 35 mg. Dose escalation and selection was dependent upon satisfactory review of the blinded safety (up to Day 17 ± 2) and plasma pharmacokinetics (up to Day 12) data from the preceding cohort. Safety, pharmacokinetic and pharmacodynamic assessments were made at pre‐determined time‐points during each part of the study.
as §1
as §2, with “Associated P‐values <0.05 for each comparison have been presented.” left out

CYP2D6 = molecular target: T1, CYP2D6 (Homo sapiens, UniProt P10635); experiment: Cytochrome P450 inhibition, CYP2D6; format: in vitro ADME; conditions: human liver microsomes; read-out: CYP450 isoform 2D6 IC50
T1 construct: tissue Cyprotex Discovery Limited; host or cells: human liver microsomes
Protocol: (§3) Testing was performed by Cyprotex Discovery Limited, Cheshire, UK. Six test compound concentrations (0.4, 1, 4, 10, 40 and 100 μM; final DMSO concentration 0.25%, final microsome concentration 0.25 mg·mL^−1) were either pre‐incubated for 30 min in the absence and presence of NADPH or underwent a 0 min pre‐incubation with human liver microsomes. At the end of the pre‐incubation period, the probe substrate for each cytochrome P450 (CYP450) isoform (30 μM) and NADPH (1 mM) were then added (final DMSO concentration 0.3%), and the samples were incubated for 5 min at 37°C. Probe substrates were as follows: 1A2 – phenacetin, 2C9 – diclofenac, 2C19 – mephenytoin, 2D6 – dextromethorphan, 3A4 – midazolam and testosterone. Samples were subjected to LC–MS/MS analysis to determine metabolite concentrations. A decrease in the formation of the metabolite compared with vehicle control was used to calculate an IC50 value (test compound concentration which produces 50% inhibition) for each experimental condition.

CYP2C9 = molecular target: T2, CYP2C9 (Homo sapiens, UniProt P11712); experiment: Cytochrome P450 inhibition, CYP2C9; format: in vitro ADME; conditions: human liver microsomes; read-out: CYP450 isoform 2C9 IC50
T2 construct: tissue Cyprotex Discovery Limited; host or cells: human liver microsomes
Protocol: as §3

CYP450 enzymes = experiment: Time-dependent cytochrome P450 inhibition; format: in vitro ADME, human; conditions: 30 min pre-incubation ± NADPH; in words
Protocol: as §3

CYP3A4 = molecular target: T3, CYP3A4 (Homo sapiens, UniProt P08684); experiment: Cytochrome P450 inhibition, CYP3A4; format: in vitro ADME; conditions: human liver microsomes; read-out: CYP450 isoform 3A4 IC50
T3 construct: tissue Cyprotex Discovery Limited; host or cells: human liver microsomes
Protocol: as §3

[5] = single oral dose 10 mg, mean (CV%)
[6] = single oral dose 18 mg, mean (CV%)
[7] = single oral dose 25 mg, mean (CV%)
[8] = single oral dose 35 mg, mean (CV%)

T3 sequence (P08684 whole entry, canonical isoform): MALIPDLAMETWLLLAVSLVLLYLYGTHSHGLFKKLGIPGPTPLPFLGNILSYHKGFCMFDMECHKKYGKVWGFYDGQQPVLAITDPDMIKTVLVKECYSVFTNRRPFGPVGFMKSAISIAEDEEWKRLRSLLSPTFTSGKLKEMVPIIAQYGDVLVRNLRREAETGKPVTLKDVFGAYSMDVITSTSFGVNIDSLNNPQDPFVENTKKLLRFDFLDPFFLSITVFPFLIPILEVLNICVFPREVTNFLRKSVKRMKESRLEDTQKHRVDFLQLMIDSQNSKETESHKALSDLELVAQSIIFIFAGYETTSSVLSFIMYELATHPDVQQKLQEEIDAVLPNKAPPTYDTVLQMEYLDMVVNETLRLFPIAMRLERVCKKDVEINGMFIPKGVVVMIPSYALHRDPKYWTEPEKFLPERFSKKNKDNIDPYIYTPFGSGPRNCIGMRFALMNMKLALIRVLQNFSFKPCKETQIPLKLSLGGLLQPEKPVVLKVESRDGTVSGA
T2 sequence (P11712 whole entry, canonical isoform): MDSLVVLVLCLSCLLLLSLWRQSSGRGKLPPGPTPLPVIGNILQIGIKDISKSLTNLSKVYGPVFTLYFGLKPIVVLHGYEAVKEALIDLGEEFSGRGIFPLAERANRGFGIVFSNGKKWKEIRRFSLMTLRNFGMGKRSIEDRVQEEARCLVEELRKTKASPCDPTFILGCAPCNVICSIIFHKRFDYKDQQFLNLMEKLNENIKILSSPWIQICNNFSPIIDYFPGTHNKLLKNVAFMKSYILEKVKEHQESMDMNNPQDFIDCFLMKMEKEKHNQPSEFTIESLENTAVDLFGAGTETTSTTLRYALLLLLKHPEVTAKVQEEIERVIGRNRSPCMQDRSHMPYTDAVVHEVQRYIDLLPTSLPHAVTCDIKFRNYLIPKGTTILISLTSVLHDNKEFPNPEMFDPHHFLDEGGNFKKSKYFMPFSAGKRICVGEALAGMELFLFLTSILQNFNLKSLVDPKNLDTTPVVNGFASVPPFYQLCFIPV
T1 sequence (P10635 whole entry, canonical isoform): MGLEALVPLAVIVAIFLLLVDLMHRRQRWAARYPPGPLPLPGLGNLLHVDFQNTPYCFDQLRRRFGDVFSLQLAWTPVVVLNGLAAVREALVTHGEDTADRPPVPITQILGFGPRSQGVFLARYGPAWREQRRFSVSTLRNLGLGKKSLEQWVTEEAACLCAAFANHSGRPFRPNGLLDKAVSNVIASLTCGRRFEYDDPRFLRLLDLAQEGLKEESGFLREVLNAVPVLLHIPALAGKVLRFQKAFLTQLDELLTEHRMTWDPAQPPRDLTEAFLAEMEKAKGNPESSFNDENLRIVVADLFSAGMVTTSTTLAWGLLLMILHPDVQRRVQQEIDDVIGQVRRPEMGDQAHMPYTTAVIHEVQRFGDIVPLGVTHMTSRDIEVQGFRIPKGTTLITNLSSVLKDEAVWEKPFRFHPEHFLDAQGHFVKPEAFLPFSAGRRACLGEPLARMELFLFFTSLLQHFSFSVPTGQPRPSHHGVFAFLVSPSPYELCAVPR

O=C(c1csc(-c2cn[nH]c2)c1)N1C2CCC1CC(O)(c1ncccn1)C2 (stereo not shown) [compound 4]
off‐target profile in diversity screen [1]: clean off‐target profile | half-life ([2]; oral, single doses, range across doses): 10.5 to 18.7 h | Cmax [2, 5]: 40.4 ng/mL | half-life [2, 5]: 18.7 h | Tmax ([2]; single oral dose 10 mg): 3.5 h | Cmax [2, 6]: 136 ng/mL | half-life [2, 6]: 13.6 h | Tmax ([2]; single oral dose 18 mg): 4 h | Cmax [2, 7]: 278 ng/mL | half-life [2, 7]: 10.5 h | Tmax ([2]; single oral dose 25 mg): 4 h | Cmax [2, 8]: 329 ng/mL | half-life [2, 8]: 11.4 h | Tmax ([2]; single oral dose 35 mg): 4 h | CL renal ([2]; oral, single doses, read-out: renal clearance (CLR)): < 2.17 mL/min | CL renal ([2]; single oral dose 10 mg, mean (CV%), read-out: CLR (renal clearance) (converted)): 1.17 mL/min | CL renal ([2]; single oral dose 18 mg, mean (CV%), read-out: CLR (renal clearance) (converted)): 2.67 mL/min | CL renal ([2]; single oral dose 25 mg, mean (CV%), read-out: CLR (renal clearance) (converted)): 2.17 mL/min | CL renal ([2]; single oral dose 35 mg, mean (CV%), read-out: CLR (renal clearance) (converted)): 2 mL/min | Urinary excretion, % of the respective doses ([2]; single doses): ≤ 1.8% | Plasma levels ([2]; single doses of 2 and 5 mg, in words): below the level of quantification | AUC0‐t [2, 5]: 550 (90%) ng^.h·mL^−1 | AUC0‐∞ [2, 5]: 856 (70%) ng^.h·mL^−1 | Ae(0–120h) (%) [2, 5]: 0.53 (85%) | Ae(0–120h), amount excreted in urine [2, 5]: 52.5 (85%) μg | Oral clearance [2, 5]: 18.5 (75%) L·h^−1 | AUC0‐t [2, 6]: 2291 (87%) ng^.h·mL^−1 | AUC0‐∞ [2, 6]: 2581 (84%) ng^.h·mL^−1 | Ae(0–120h) (%) [2, 6]: 1.67 (66%) | Ae(0–120h), amount excreted in urine [2, 6]: 300 (66%) μg | Oral clearance [2, 6]: 14.5 (90%) L·h^−1 | AUC0‐t [2, 7]: 3486 (39%) ng^.h·mL^−1 | AUC0‐∞ [2, 7]: 3825 (35%) ng^.h·mL^−1 | Ae(0–120h) (%) [2, 7]: 1.75 (37%) | Ae(0–120h), amount excreted in urine [2, 7]: 438 (37%) μg | Oral clearance [2, 7]: 7.32 (38%) L·h^−1 | AUC0‐t [2, 8]: 4016 (30%) ng^.h·mL^−1 | AUC0‐∞ [2, 8]: 4261 (29%) ng^.h·mL^−1 | Ae(0–120h) (%) [2, 8]: 1.43 (15%) | Ae(0–120h), amount excreted in urine [2, 8]: 501 (15%) μg | Oral clearance [2, 8]: 8.78 (28%) L·h^−1 | Liver microsomal stability (% parent at 30 min), human [3]: 99 ± 1 [3] % parent at 30 min | mean maximum percentage change in ACTH (from baseline) ([4]; 10 mg b.i.d): 222% | mean maximum percentage change in ACTH (from baseline) ([4]; 20 mg b.i.d): 195% | mean maximum percentage change in ACTH (from baseline) ([4]; 35 mg b.i.d): 230% | IC50 (CYP2D6): > 50 µM | IC50 (CYP2C9): > 50 µM | time‐dependent inhibition of CYP450 enzymes (CYP450 enzymes): No time‐dependent inhibition | IC50 (CYP3A4): > 50 µM
